Measured values published in ChEMBL document CHEMBL1126533, “Synthesis of a potential photoaffinity labelling reagent for HIV-1 reverse transcriptase” (Bioorg Med Chem Lett, 1993).

Legend:
[1] = tested on: MT4; test: Cytotoxic concentration required to reduce viability of mock-infected MT-4 cells by 50%; type: functional; settings: Homo sapiens
[2] = tested on: MT4; test: Effective concentration required to achieve 50% protection of MT-4 cells against the cytopathic effect of HIV-1; type: functional, cell-based; settings: Homo sapiens

| Compound | CC50 [1] [µM] | EC50 [2] [µM] |
| --- | --- | --- |
| CCOCn1c(C(=O)c2cccc([N+](=O)[O-])c2)c(CC)c(=O)[nH]c1=O | 232 | 0.21 |
| CCOCn1c(C(OC(C)=O)c2cccc([N+](=O)[O-])c2)c(CC)c(=O)[nH]c1=O (stereo not drawn) | 283 | 29 |
| CCOCn1c(Cc2cccc(O)c2)c(CC)c(=O)[nH]c1=O | 201 | 0.4 |
| Cc1c(Sc2ccccc2)n(COCCO)c(=O)[nH]c1=O [HEPT] | 740 |  |
| CCOCn1c(Cc2cccc(N=[N+]=[N-])c2)c(CC)c(=O)[nH]c1=O | 117 | 0.011 |
| CCOCn1c(Cc2cccc(N)c2)c(CC)c(=O)[nH]c1=O | 297 | 0.14 |
| CCOCn1c(Sc2ccccc2)c(CC)c(=O)[nH]c1=O | 197 | 0.018 |
